{
  "source": "ChEMBL document CHEMBL1142033",
  "about": "“Synthesis of isonicotinic acid N'-arylidene-N-[2-oxo-2-(4-aryl-piperazin-1-yl)-ethyl]-hydrazides as antituberculosis agents” (2005)",
  "data": [
    {"tested_on": "Mycobacterium tuberculosis", "test": "Minimum inhibitory concentration against resistant Mycobacterium tuberculosis clinical isolates; N=9", "format": "functional", "units": {"MIC": "µg/mL"}, "values": [
      {"smiles": "O=C(CN(/N=C/c1ccc(Cl)cc1Cl)C(=O)c1ccncc1)N1CCN(c2cccc(C(F)(F)F)c2)CC1", "MIC": "> 16"},
      {"smiles": "COc1ccccc1N1CCN(C(=O)CN(/N=C/c2ccccc2Cl)C(=O)c2ccncc2)CC1", "MIC": "> 16"},
      {"smiles": "O=C(CN(/N=C/c1ccc(Cl)cc1)C(=O)c1ccncc1)N1CCN(c2ccc(Cl)cc2)CC1", "MIC": "> 16"},
      {"smiles": "O=C(CN(/N=C/c1cccc(Cl)c1)C(=O)c1ccncc1)N1CCN(c2ccc([N+](=O)[O-])cc2)CC1", "MIC": "> 16"},
      {"smiles": "O=C(CN(/N=C/c1ccc(Cl)cc1Cl)C(=O)c1ccncc1)N1CCN(c2ccc([N+](=O)[O-])cc2)CC1", "MIC": "> 16"},
      {"smiles": "O=C(CN(/N=C/c1cccc(Cl)c1)C(=O)c1ccncc1)N1CCN(c2cccc(Cl)c2)CC1", "MIC": "> 16"},
      {"smiles": "O=C(CN(/N=C/c1ccccc1Cl)C(=O)c1ccncc1)N1CCN(c2ccccc2)CC1", "MIC": "> 16"},
      {"smiles": "O=C(CN(/N=C/c1ccc(Cl)cc1)C(=O)c1ccncc1)N1CCN(c2ccc(F)cc2)CC1", "MIC": "> 16"},
      {"smiles": "COc1ccccc1N1CCN(C(=O)CN(/N=C/c2cccc(Cl)c2)C(=O)c2ccncc2)CC1", "MIC": "> 16"},
      {"smiles": "O=C(CN(/N=C/c1cccc(Cl)c1)C(=O)c1ccncc1)N1CCN(c2ccc(F)cc2)CC1", "MIC": "> 16"},
      {"smiles": "O=C(CN(/N=C/c1ccc(Cl)cc1Cl)C(=O)c1ccncc1)N1CCN(c2ccc(F)cc2)CC1", "MIC": "> 16"},
      {"smiles": "O=C(CN(/N=C/c1ccc(Cl)cc1Cl)C(=O)c1ccncc1)N1CCN(c2ccc(Cl)cc2)CC1", "MIC": 16},
      {"smiles": "Cc1cccc(N2CCN(C(=O)CN(/N=C/c3cccc(Cl)c3)C(=O)c3ccncc3)CC2)c1", "MIC": "> 16"},
      {"smiles": "COc1ccccc1N1CCN(C(=O)CN(/N=C/c2ccc(Cl)cc2)C(=O)c2ccncc2)CC1", "MIC": "> 16"},
      {"smiles": "O=C(CN(/N=C/c1ccccc1Cl)C(=O)c1ccncc1)N1CCN(c2ccc([N+](=O)[O-])cc2)CC1", "MIC": "> 16"},
      {"smiles": "O=C(CN(/N=C/c1ccc(Cl)cc1Cl)C(=O)c1ccncc1)N1CCN(c2ccccc2)CC1", "MIC": "> 16"},
      {"smiles": "O=C(CN(/N=C/c1ccccc1Cl)C(=O)c1ccncc1)N1CCN(c2cccc(Cl)c2Cl)CC1", "MIC": "> 16"},
      {"smiles": "O=C(CN(/N=C/c1ccccc1Cl)C(=O)c1ccncc1)N1CCN(c2cccc(Cl)c2)CC1", "MIC": "> 16"},
      {"smiles": "O=C(CN(/N=C/c1cccc(Cl)c1)C(=O)c1ccncc1)N1CCN(c2ccccc2)CC1", "MIC": "> 16"},
      {"smiles": "Cc1cccc(N2CCN(C(=O)CN(/N=C/c3ccc(Cl)cc3Cl)C(=O)c3ccncc3)CC2)c1", "MIC": "> 16"},
      {"smiles": "Cc1cccc(N2CCN(C(=O)CN(/N=C/c3ccccc3Cl)C(=O)c3ccncc3)CC2)c1", "MIC": "> 16"},
      {"smiles": "O=C(CN(/N=C/c1ccccc1Cl)C(=O)c1ccncc1)N1CCN(c2cccc(C(F)(F)F)c2)CC1", "MIC": "> 16"},
      {"smiles": "O=C(CN(/N=C/c1ccc(Cl)cc1)C(=O)c1ccncc1)N1CCN(c2ccc([N+](=O)[O-])cc2)CC1", "MIC": "> 16"},
      {"smiles": "COc1ccccc1N1CCN(C(=O)CN(/N=C/c2ccc(Cl)cc2Cl)C(=O)c2ccncc2)CC1", "MIC": "> 16"},
      {"smiles": "O=C(CN(/N=C/c1cccc(Cl)c1)C(=O)c1ccncc1)N1CCN(c2ccc(Cl)cc2)CC1", "MIC": "> 16"},
      {"smiles": "O=C(CN(/N=C/c1ccccc1Cl)C(=O)c1ccncc1)N1CCN(c2ccc(Cl)cc2)CC1", "MIC": "> 16"},
      {"smiles": "O=C(CN(/N=C/c1ccccc1Cl)C(=O)c1ccncc1)N1CCN(c2ccc(F)cc2)CC1", "MIC": "> 16"},
      {"smiles": "O=C(CN(/N=C/c1ccc(Cl)cc1Cl)C(=O)c1ccncc1)N1CCN(c2cccc(Cl)c2)CC1", "MIC": "> 16"}
    ]},
    {"tested_on": "Mycobacterium tuberculosis", "test": "Minimum inhibitory concentration against resistant Mycobacterium tuberculosis clinical isolates; N=9; Range 2-4", "format": "functional", "units": {"MIC": "µg/mL"}, "values": [
      {"smiles": "O=C(CN(/N=C/c1ccc(Cl)cc1Cl)C(=O)c1ccncc1)N1CCN(Cc2ccc3c(c2)OCO3)CC1", "MIC": 4}
    ]},
    {"tested_on": "Mycobacterium tuberculosis", "test": "Minimum inhibitory concentration against resistant Mycobacterium tuberculosis clinical isolates; N=9; range=4-8", "format": "functional", "units": {"MIC": "µg/mL"}, "values": [
      {"smiles": "O=C(CN(/N=C/c1ccc(Cl)cc1)C(=O)c1ccncc1)N1CCN(Cc2ccc3c(c2)OCO3)CC1", "MIC": 8},
      {"smiles": "O=C(CN(/N=C/c1cccc(Cl)c1)C(=O)c1ccncc1)N1CCN(Cc2ccc3c(c2)OCO3)CC1", "MIC": 8}
    ]},
    {"tested_on": "Mycobacterium tuberculosis", "test": "Minimum inhibitory concentration against resistant Mycobacterium tuberculosis clinical isolates; N=9; Range=2-16", "format": "functional", "units": {"MIC": "µg/mL"}, "values": [
      {"smiles": "CO[C@H]1/C=C/O[C@@]2(C)Oc3c(C)c(O)c4c(O)c(c(/C=N/N5CCN(C)CC5)c(O)c4c3C2=O)NC(=O)/C(C)=C\\C=C\\[C@H](C)[C@H](O)[C@@H](C)[C@@H](O)[C@@H](C)[C@H](OC(C)=O)[C@@H]1C", "note": "[RIFAMPIN]", "MIC": 16}
    ]},
    {"tested_on": "Mycobacterium tuberculosis", "test": "Minimum inhibitory concentration against resistant Mycobacterium tuberculosis clinical isolates; N=9; Range=8-16", "format": "functional", "units": {"MIC": "µg/mL"}, "values": [
      {"smiles": "NNC(=O)c1ccncc1", "note": "[ISONIAZID]", "MIC": 16}
    ]},
    {"tested_on": "Mycobacterium tuberculosis", "test": "Minimum inhibitory concentration against resistant Mycobacterium tuberculosis clinical isolates; N=9; range=8-16", "format": "functional", "units": {"MIC": "µg/mL"}, "values": [
      {"smiles": "O=C(CN(/N=C/c1ccccc1Cl)C(=O)c1ccncc1)N1CCN(Cc2ccc3c(c2)OCO3)CC1", "MIC": 16}
    ]}
  ]
}
